# Reference: publication PMC5244392, “Interspecies cathelicidin comparison reveals divergence in antimicrobial activity, TLR modulation, chemokine induction and regulation of phagocytosis” (Scientific Reports, 2017)
# System: E. coli O78
# Assay: Sytox green membrane leakage assay
# Format: cell-based, Escherichia coli
# Settings: 30 min at 37 °C, MHB or DMEM + FCS, peptide 0.31-20 μM; N = 3
# Method: Peptide dilutions and bacteria suspensions were prepared as described above for testing the antimicrobial activity in the Bioscreen C analyzer. Peptide dilutions and bacteria were mixed 1:1 and incubated for 30 minutes at 37 °C. Next, bacteria were washed once with PBS and transferred to black 96-wells assay plates (Corning, OH, USA). Bacteria were incubated with […] sytox green (Life technologies) (λex 504 nm and λem 523 nm) for 5 minutes after which fluorescence was measured using a FLUOstar Omega microplate reader (BMG Labtech GmbH, Ortenberg, Germany).
# The capacity of peptides to induce membrane leakage was tested using the permeability marker sytox green. […] For MRSA, fluorescence levels were generally very low even at >Cmax levels, hampering a good comparison between growth delay and permeabilization for this strain.
# Supplementary Figure 2: Bacterial membrane leakage
# E. Coli O78 and MRSA (1x10^6 CFU/ml) were grown in MHB or DMEM+FCS for 30 minutes at 37°C in the presence of diﬀerent concentrations of cathelicidins (0.31 µM, 0.63 µM, 1.25 µM, 2.5 µM, 5 µM, 10 µM, and 20 µM), after which the cells were stained with sytox green to measure membrane leakage. E. Coli in MHB, dark green line; E. Coli in DMEM, light green line; MRSA in MHB, dark blue line; MRSA in DMEM, light blue line. Results are presented as average +/- SEM (N = 3).
# Peptide concentration (µ M) […]
sequence,measurement,value
"RRRPRPPYLPRPRPPPFFPPRLPPRIPPGFPPRFPPRFP [PR-39, porcine proline-rich cathelicidin forming a polyproline helix, 39 residues, charge +10]","Membrane permeability (sytox green fluorescence), in words",minimal permeability
